Patent publication US20210378591A1, “PROCESS FOR VISUAL DETERMINATION OF TISSUE BIOLOGY” (UNIVERSITY COLLEGE DUBLIN, NATIONAL UNIVERSITY OF IRELAND, …, priority 2018, published 2021)

Legend:
[1] = cited from earlier work
[2] = cited from earlier work; remark: listed apart in the source
[3] = Dynamic visual analysis (DVA) of ICG NIR fluorescence intensity, rectal lesion versus healthy background tissue; conditions: for initial uptake of ICG relative to background tissue: 0.25 mg per kg intravenously, initial phase; for washout of contrast agent: at 25 to 30 minutes

CC1(C)C(/C=C/C=C/C=C/C=C2\N(CCCCS(=O)(=O)O)c3ccc4ccccc4c3C2(C)C)=[N+](CCCCS(=O)(=O)[O-])c2ccc3ccccc3c21 [ICG, indocyanine green]
plasma protein binding ([1]; following intravenous injection): rapidly bound to plasma proteins with minimal leakage into the interstitium
time of excretion by the liver in bile after injection ([1]; intravenous injection): about 8 min
water solubility [2]: water-soluble but relatively hydrophobic
initial uptake of ICG relative to background tissue ([3]; benign lesions): either synchronous with the background tissue or was ahead of the background tissue
washout of contrast agent ([3]; benign lesions): most of the ICG tends to washout
initial uptake of ICG relative to background tissue ([3]; cancerous tissue): a definite lag in the initial uptake
washout of contrast agent ([3]; cancerous tissue): retains it for longer
